Measurements reported in US10428082B2, “Triazole derivatives of melampomagnolide B and methods of use thereof” (BioVentures, LLC, priority 2016, dated 2019).

Columns and labels:
[1] = system: M9 ENL1 cell line; assay: Anti-leukemic activity, Annexin V/7-AAD flow cytometry; type: cell-based; settings: M9-ENL1, 24 h, 24 h of drug exposure; read-out: M9ENL1 (EC50)
In short: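 Cells were exposed to drug for 24 h. Apoptotic populations were measured by flow cytometry with Annexin V/7-AAD labelling. Primary AML cells were from patients.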

[2] = system: NCI panel of 60 human cancer cell lines; assay: NCI 60 growth inhibition, ranges over groups of cell lines; type: cell-based; settings: 60 cell, several cell lines in the NCI 60 cell panel, read-out: GI50
In short: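 Melampomagnolide B triazole derivatives screened in NCI 60 human cancer cell line panel. GI50 taken from optical density change as percentage of control.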

[3] = system: NCI-H23; assay: NCI 60 growth inhibition; type: cell-based, human; settings: Homo sapiens; NCI-H23, Non-Small Cell Lung Cancer, Table 2
[4] = system: SK-MEL-28; assay: NCI 60 growth inhibition; type: cell-based, human; settings: Homo sapiens; SK-MEL-28, Melanoma, Table 2
[5] = system: RPMI-8226; assay: NCI 60 growth inhibition; type: cell-based, human; settings: Homo sapiens; RPMI-8226, Leukemia, Table 2
[6] = system: OVCAR-3; assay: NCI 60 growth inhibition; type: cell-based, human; settings: Homo sapiens; OVCAR-3, Ovarian Cancer, Table 2
[7] = system: HCC-2998; assay: NCI 60 growth inhibition; type: cell-based, human; settings: Homo sapiens; HCC-2998, Colon Cancer, Table 2
[8] = system: MDA-MB-435; assay: NCI 60 growth inhibition; type: cell-based, human; settings: Homo sapiens; MDA-MB-435, Melanoma, Table 2
[9] = system: NCI-H460; assay: NCI 60 growth inhibition; type: cell-based, human; settings: Homo sapiens; NCI-H460, Non-Small Cell Lung Cancer, Table 2
[10] = system: MALME-3M; assay: NCI 60 growth inhibition; type: cell-based, human; settings: Homo sapiens, Melanoma, Table 2
[11] = system: 786-0; assay: NCI 60 growth inhibition; type: cell-based, human; settings: Homo sapiens; 786-0, Renal Cancer, Table 2
[12] = system: HCT-116; assay: NCI 60 growth inhibition; type: cell-based, human; settings: Homo sapiens; HCT-116, Colon Cancer, Table 2
[13] = system: MDA-MB-231/ATCC; assay: NCI 60 growth inhibition; type: cell-based, human; settings: Homo sapiens, Breast Cancer, Table 2
[14] = system: NCI-H226; assay: NCI 60 growth inhibition; type: cell-based, human; settings: Homo sapiens; NCI-H226, Non-Small Cell Lung Cancer, Table 2
[15] = system: SF-268; assay: NCI 60 growth inhibition; type: cell-based, human; settings: Homo sapiens; SF-268, CNS Cancer, Table 2
[16] = system: SK-OV-3; assay: NCI 60 growth inhibition; type: cell-based, human; settings: Homo sapiens; SK-OV-3, Ovarian Cancer, Table 2
[17] = system: SW-620; assay: NCI 60 growth inhibition; type: cell-based, human; settings: Homo sapiens; SW-620, Colon Cancer, Table 2
[18] = system: HOP-92; assay: NCI 60 growth inhibition; type: cell-based, human; settings: Homo sapiens; HOP-92, Non-Small Cell Lung Cancer, Table 2
[19] = system: RXF 393; assay: NCI 60 growth inhibition; type: cell-based, human; settings: Homo sapiens, RXF 393, RXF 393, Renal Cancer, Table 2
[20] = system: EKVX; assay: NCI 60 growth inhibition; type: cell-based, human; settings: Homo sapiens, Non-Small Cell Lung Cancer, Table 2
[21] = system: HS 578T; assay: NCI 60 growth inhibition; type: cell-based, human; settings: Homo sapiens, Breast Cancer, Table 2
[22] = system: IGROV1; assay: NCI 60 growth inhibition; type: cell-based, human; settings: Homo sapiens, IGROV-1; IGROV1, Ovarian Cancer, Table 2
[23] = system: HOP-62; assay: NCI 60 growth inhibition; type: cell-based, human; settings: Homo sapiens; HOP-62, Non-Small Cell Lung Cancer, Table 2
[24] = system: K-562; assay: NCI 60 growth inhibition; type: cell-based, human; settings: Homo sapiens, K562; K-562, Leukemia, Table 2
[25] = system: SK-MEL-2; assay: NCI 60 growth inhibition; type: cell-based, human; settings: Homo sapiens; SK-MEL-2, Melanoma, Table 2
[26] = system: T-47D; assay: NCI 60 growth inhibition; type: cell-based, human; settings: Homo sapiens, T47D, Breast Cancer, Table 2
[27] = system: MOLT-4; assay: NCI 60 growth inhibition; type: cell-based, human; settings: Homo sapiens; MOLT-4, Leukemia, Table 2
[28] = system: HL-60(TB); assay: NCI 60 growth inhibition; type: cell-based, human; settings: Homo sapiens; HL-60(TB), Leukemia, Table 2
[29] = system: MDA-MB-468; assay: NCI 60 growth inhibition; type: cell-based, human; settings: Homo sapiens; MDA-MB-468, Breast Cancer, Table 2
[30] = system: COLO 205; assay: NCI 60 growth inhibition; type: cell-based, human; settings: Homo sapiens; COLO 205, Colon Cancer, Table 2
[31] = system: PC-3; assay: NCI 60 growth inhibition; type: cell-based, human; settings: Homo sapiens; PC-3, Prostate Cancer, Table 2
[32] = system: DU-145; assay: NCI 60 growth inhibition; type: cell-based, human; settings: Homo sapiens; DU-145, Prostate Cancer, Table 2
[33] = system: CCRF-CEM; assay: NCI 60 growth inhibition; type: cell-based, human; settings: Homo sapiens, Leukemia, Table 2
[34] = system: NCI-H322M; assay: NCI 60 growth inhibition; type: cell-based, human; settings: Homo sapiens, Non-Small Cell Lung Cancer, Table 2
[35] = system: NCI/ADR-RES; assay: NCI 60 growth inhibition; type: cell-based, human; settings: Homo sapiens, Ovarian Cancer, Table 2
[36] = system: UACC-62; assay: NCI 60 growth inhibition; type: cell-based, human; settings: Homo sapiens; UACC-62, Melanoma, Table 2
[37] = system: CAKI-1; assay: NCI 60 growth inhibition; type: cell-based, human; settings: Homo sapiens; CAKI-1, Renal Cancer, Table 2

Structure (SMILES) | EC50 [1] [nM] | GI50 [2] [nM] | GI50 [3] [nM] | GI50 [4] [nM] | GI50 [5] [nM] | GI50 [6] [nM] | GI50 [7] [nM] | GI50 [8] [nM] | GI50 [9] [nM] | GI50 [10] [nM] | GI50 [11] [nM] | GI50 [12] [nM] | GI50 [13] [nM] | GI50 [14] [nM] | GI50 [15] [nM] | GI50 [16] [nM] | GI50 [17] [nM] | GI50 [18] [nM] | GI50 [19] [nM] | GI50 [20] [nM] | further results
C=C1C(=O)O[C@H]2[C@H]1CC/C(Cn1cc(-c3ccc(OC)cc3)nn1)=C\CC[C@@]1(C)O[C@@H]21 [JVM 4-24, (1aR,7aS,10aS,10bS,E)-5((4-(4-Methoxyphenyl)-1H-1,2,3-triazol-1-yl)methyl)-1a-methyl-8-methylene-2,3,6,7,7a,8,10a,10b-octahydrooxireno[2′,3′:9,10]cyclodeca[1,2-b]furan-9(1aH)-one] | 1400 | 200 to 990 | 2060 | 820 | 1870 | 560 | 1980 | 1140 | 8450 | 1670 | 1240 | 480 | 1440 | 1990 | 2070 | 16300 | 490 | 1130 | 700 | 2470 | GI50 [21]: 7420 nM; GI50 [22]: 1350 nM; GI50 [23]: 10500 nM; GI50 [24]: 1300 nM; GI50 [25]: 1950 nM; GI50 [26]: 1430 nM; GI50 [27]: 1130 nM; GI50 [28]: 1170 nM; GI50 [29]: 890 nM; GI50 [30]: 500 nM; GI50 [31]: 9350 nM; GI50 [32]: 1110 nM; GI50 [33]: 290 nM; GI50 [34]: 10700 nM; GI50 [35]: 3080 nM; GI50 [36]: 1350 nM; GI50 [37]: 1030 nM
C=C1C(=O)O[C@H]2[C@H]1CC/C(Cn1cc(-c3ccccc3)nn1)=C\CC[C@@]1(C)O[C@@H]21 [JVM 3-74, (1aR,7aS,10aS,10bS,E)-1a-Methyl-8-methylene-5-((4-phenyl-1H-1,2,3-triazol-1-yl)methyl)-2,3,6,7,7a,8,10a,10b-octahydrooxireno[2′,3′:9,10]cyclodeca[1,2-b]furan-9(1aH)-one] | 1900 | 200 to 990 | 5380 | 1060 | 1710 | 1400 | 6160 | 2370 | 7740 | 1170 | 2630 | 1170 | 2000 | 4600 | 5630 | 9950 | 1500 | 1420 | 1550 | 6870 | GI50 [21]: 9780 nM; GI50 [22]: 6950 nM; GI50 [23]: 7410 nM; GI50 [24]: 1760 nM; GI50 [25]: 5500 nM; GI50 [26]: 1300 nM; GI50 [27]: 1290 nM; GI50 [28]: 1490 nM; GI50 [29]: 950 nM; GI50 [30]: 1080 nM; GI50 [31]: 5650 nM; GI50 [32]: 2190 nM; GI50 [33]: 990 nM; GI50 [34]: 7790 nM; GI50 [35]: 6170 nM; GI50 [36]: 1870 nM; GI50 [37]: 1280 nM
